Usually inhibition stands for the share of the control response that was lost under treatment.

We go through twelve compounds from patent EP0237138A1, “Heterocyclic compounds, their preparation and, pharmaceutical compositions containing them” (YAMANOUCHI PHARMACEUTICAL CO. LTD., priority 1986, dated 1987).

Assay [1] concerns the target T1, human placenta aldose reductase (Homo sapiens, UniProt P15121).
T1 construct: a human placenta aldose reductase was purified to a single protein; from tissue; host or cells: human placenta
Briefly: Aldose reductase-inhibitory activity (rate of disappearance of NADPH, glyceraldehyde substrate). Type of assay: biochemical. The settings on record: for inhibition at 1 µM: 10^-6(M); for inhibition at 0.1 µM: 10^-7(M). How it is done: The compound of the present invention, aldose reductase and nicotinamide adenine dinucleotide phosphate (NADPH) are dissolved in a buffer of pH 6.2 and incubated for 10 minutes at 25°C; glyceraldehyde is added thereto to start the reaction, and the rate of disappearance of NADPH is defined to be the enzyme activity of the aldose reductase.

The test system of assay [2] is Platelet aggregation in PRP. Briefly: Platelet aggregation-inhibitory activity (arachidonate-induced aggregation in platelet-rich plasma, Born's method). The settings on record: aggregation induced by arachidonate.

For `N=C1NC(=O)C(=C2CCS(=O)(=O)c3ccccc32)S1` [Example 95, 4-(2-imino-4-oxo-5-thiazolidinylidene)thiochroman 1,1-dioxide], in assay [1], 1 µM produced 65% inhibition and 0.1 µM produced 19% inhibition. Also, in assay [2] (400 (μM)), the “Platelet Aggregation Inhibition” value was 43%.

For `O=C1NC(=S)SC1=C1CCSc2ccccc21` [Example 105, 4-oxo-5-(4-thiochromanylidene)-2-thioxo-thiazolidine], in assay [1], at 1 µM the inhibition was 83% and the inhibition at 0.1 µM was determined as 29%.

In assay [1], `O=C1NC(=S)SC1=C1C=CS(=O)(=O)c2ccccc21` [Example 119] showed an inhibition at 1 µM of 53% and an inhibition at 0.1 µM of 37%. Also, the “Platelet Aggregation Inhibition” value in assay [2] (400 (μM)) is listed as 84%.

In assay [1], `COc1ccc2c(c1)CCCC2=C1SC(=S)N(CC(=O)O)C1=O` [Example 7, 5-(6-methoxy-1,2,3,4-tetrahydro-1-natphylidene)-4-oxo-2-thioxo-3-thiazolidine-acetic acid] returned an inhibition at 1 µM of 93% and an inhibition at 0.1 µM of 65%. The “Platelet Aggregation Inhibition” value in assay [2] (200 (μM)) was determined as 100%.

Turning to `O=C(O)c1ccc(N2C(=O)C(=C3CCS(=O)(=O)c4ccccc43)SC2=S)cc1` [Example 54, 4-[3-(p-carboxyphenyl)-4-oxo-2-thioxo-5-thiazolidinylidene]thiochroman 1,1-dioxide], in assay [1], testing at 1 µM gave an inhibition of 30% and the inhibition at 0.1 µM came out at 15%. In assay [2] (200 (μM)), the “Platelet Aggregation Inhibition” value came to 65%.

As to `O=C1NC(=S)SC1=C1C(=O)Nc2ccc(Cl)cc21` [Example 66, 5-chloro-3-(4-oxo-2-thioxo-5-thiazolidinylidene)-2-indolinone], the inhibition at 1 µM in assay [1] stood at 72%.

Turning to `O=C1NC(=O)/C(=C2\CCS(=O)(=O)c3ccccc32)S1` [Example 99B, (Z)-4-(2,4-dioxo-5-thiazolidinylidene)thiochroman 1,1-dioxide], in assay [1], the inhibition at 1 µM was determined as 87% and at 0.1 µM the inhibition was 42%.

For the compound `O=C1NC(=S)SC1=C1C(=O)Nc2ccc(Br)cc21` [Example 67, 5-bromo-3-(4-oxo-2-thioxo-5-thiazolidinylidene)-2-indolinone], 1 µM produced 64% inhibition in assay [1].

With `COc1cccc2c1CCCC2=C1SC(=S)N(CC(=O)O)C1=O` [Example 11, 5-(5-methoxy-1,2,3,4-tetrahydro-1-naphthylidene)-4-oxo-2-thioxo-3-thiazolidine-acetic acid], in assay [1], the inhibition at 1 µM was 89% and the inhibition at 0.1 µM stood at 40%.

In assay [1], `O=C1NC(=S)SC1=C1CCCS(=O)(=O)c2ccccc21` [Example 49, 2,3,4,5-tetrahydro-5-(4-oxo-2-thioxo-5-thiazolidinylidene)-1-benzothiepine 1,1-dioxide] displayed an inhibition at 1 µM of 65% and an inhibition at 0.1 µM of 23%.

As for `O=C1NC(=S)SC1=C1C(=O)Nc2ccccc21` [Example 146, 3-(4-oxo-2-thioxo-3-thiazolidinylidene)-2-indolinone], the inhibition at 1 µM in assay [1] is 56%.

On to `O=C1NC(=O)[C@@]2(CCOc3ccc(F)cc32)N1` [Sorbinil, reference compound], for which, in assay [1], 1 µM produced 53.6% inhibition and the inhibition at 0.1 µM turned out to be 15%.
